Data reported in ChEMBL document CHEMBL5528044, “Exploring the Function of (+)-Naltrexone Precursors: Their Activity as TLR4 Antagonists and Potential in Treating Morphine Addiction” (J Med Chem, 2024).
The source made the active and inactive calls. The calls are words filed in the database; no cut-off is given here.

Assays:
[1] = target: T1, Toll-like receptor 4 (Mus musculus) (UniProt Q9QUK6); assay: Antagonist activity at TLR4 signaling pathway in mouse BV-2 cells assessed as downregulation of LPS-induced IRF-3 phosphorylation at 5 uM incubated for 1 hr by Western blot analysis; type: cell-based; conditions: filed as antagonist
T1 sequence (whole entry): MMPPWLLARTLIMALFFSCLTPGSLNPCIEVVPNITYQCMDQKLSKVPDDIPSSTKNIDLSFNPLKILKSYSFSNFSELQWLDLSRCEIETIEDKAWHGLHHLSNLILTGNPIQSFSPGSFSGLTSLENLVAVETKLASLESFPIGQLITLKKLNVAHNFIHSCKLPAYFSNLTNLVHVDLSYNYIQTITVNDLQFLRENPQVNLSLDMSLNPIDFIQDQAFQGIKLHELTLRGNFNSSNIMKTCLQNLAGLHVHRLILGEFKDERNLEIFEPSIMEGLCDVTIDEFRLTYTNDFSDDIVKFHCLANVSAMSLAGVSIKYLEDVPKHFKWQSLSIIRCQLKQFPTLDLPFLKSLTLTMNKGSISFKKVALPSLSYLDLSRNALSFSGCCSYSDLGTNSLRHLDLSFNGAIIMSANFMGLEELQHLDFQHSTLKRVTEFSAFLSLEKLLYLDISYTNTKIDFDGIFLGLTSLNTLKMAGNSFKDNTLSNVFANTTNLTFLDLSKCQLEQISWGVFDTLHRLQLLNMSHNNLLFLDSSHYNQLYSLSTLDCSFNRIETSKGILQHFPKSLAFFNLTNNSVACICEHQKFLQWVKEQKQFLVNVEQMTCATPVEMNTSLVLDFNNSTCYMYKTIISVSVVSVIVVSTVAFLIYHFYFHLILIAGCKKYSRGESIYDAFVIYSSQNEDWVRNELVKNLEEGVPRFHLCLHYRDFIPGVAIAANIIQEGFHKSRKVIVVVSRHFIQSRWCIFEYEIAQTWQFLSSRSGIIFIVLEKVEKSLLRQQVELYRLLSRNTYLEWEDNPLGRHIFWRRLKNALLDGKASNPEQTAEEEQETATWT

Toll-like receptor 4 [2] = target: T2, Toll-like receptor 4 (Mus musculus, UniProt Q9QUK6); assay: Antagonist activity at TLR4 in mouse BV-2 cells assessed as inhibition of LPS-induced NO overproduction incubated for 24 hrs by 2,3-diaminonaphthalene reagent based microplate reader analysis; type: cell-based
T2 sequence (Q9QUK6 whole entry): T1 sequence (whole entry)

[3] = Toxicity in morphine-induced Balb/c mouse assessed body weight loss at 0.2 mg/kg,ip administrated for 1 week and measured on day 15; type: organism-based; conditions: in vivo, 360 h, time 15 day
[4] = AUC (0 to infinity) in Balb/c mouse at 20 mg/kg,po administration and measured upto 24 hrs by LC-MS/MS analysis; type: ADME, organism-based; conditions: in vivo
Toll-like receptor 4 [5] = target: T2, Toll-like receptor 4; assay: Antagonist activity at TLR4 in mouse BV-2 cells assessed as inhibition of LPS-induced TNF-alpha production by ELISA; type: cell-based
[6] = Volume of distribution at steady state in Balb/c mouse at 2 mg/kg,iv administration and measured upto 24 hrs by LC-MS/MS analysis; type: ADME, organism-based; conditions: in vivo, read-out: Vdss
[7] = target: T1, Toll-like receptor 4 (Mus musculus); assay: Antagonist activity at TLR4 signaling pathway in mouse BV-2 cells assessed as downregulation of LPS-induced ERK phosphorylation at 5 uM incubated for 1 hr by Western blot analysis; type: cell-based; conditions: filed as antagonist
Mus musculus [8] = assay: Inhibition of morphine-induced addiction behavior in Balb/c mouse assessed as decrease in locomotor activity at 0.005 to 0.2 mg/kg,ip administrated on day 4 to 10 by open-field test; type: functional, organism-based; conditions: dose 0.005-0.2 mg/kg, time 7.0 day
Mus musculus [9] = assay: Inhibition of chronic morphine-induced microglia activation in Balb/c mouse assessed as reduction in TNF-alpha mRNA expression in brain nucleus accumbens region at 0.2 mg/kg,ip administrated for 6 consecutive days by qPCR analysis; type: functional, organism-based
[10] = target: T1, Toll-like receptor 4 (Mus musculus); assay: Antagonist activity at TLR4 signaling pathway in mouse BV-2 cells assessed as downregulation of LPS-induced IKKalpha phosphorylation at 5 uM incubated for 1 hr by Western blot analysis; type: cell-based; conditions: filed as antagonist
[11] = AUC (0 to infinity) in Balb/c mouse at 2 mg/kg,iv administration and measured upto 24 hrs by LC-MS/MS analysis; type: ADME, organism-based; conditions: in vivo
[12] = Clearance in Balb/c mouse at 2 mg/kg,iv administration and measured upto 24 hrs by LC-MS/MS analysis; type: ADME, organism-based; conditions: in vivo

| SMILES | Activity [1] | IC50 (Toll-like receptor 4 [2]) | Activity [3] | AUC(0-inf) [4] | IC50 (Toll-like receptor 4 [5]) | Vd [6] | Activity [7] | inhibition (Mus musculus [8]) | inhibition (Mus musculus [9]) | Activity [10] | AUC(0-inf) [11] | clearance [12] |
| --- | --- | --- | --- | --- | --- | --- | --- | --- | --- | --- | --- | --- |
| COc1ccc2c3c1O[C@@H]1C(=O)C=C[C@]4(O)[C@H](C2)N(C)CC[C@@]314 (single isomer, unassigned) | Active | 1300 nM | Non-Toxic | 89.6 ng·h/mL | 4200 nM | 97 L/kg | Active | Dose-Dependent Effect | Active | Active | 16.5 ng·h/mL | – |
| CN1CC[C@@]23c4c5ccc(O)c4O[C@@H]2C(=O)C=C[C@]3(O)[C@@H]1C5 (single isomer, unassigned) | Active | 1000 nM | Non-Toxic | 295 ng·h/mL | 2300 nM | 75.5 L/kg | Active | Dose-Dependent Effect | Active | Active | 71.8 ng·h/mL | 469 mL/min/kg |
